The values that follow come from PMC10766610, “DCAF1-based PROTACs with activity against clinically validated targets overcoming intrinsic- and acquired-degrader resistance” (Nature Communications, 2024).

Assay [1] addresses T1, BRD9 (Homo sapiens, UniProt Q9H8M2).
T1 sequence (Q9H8M2 1-597): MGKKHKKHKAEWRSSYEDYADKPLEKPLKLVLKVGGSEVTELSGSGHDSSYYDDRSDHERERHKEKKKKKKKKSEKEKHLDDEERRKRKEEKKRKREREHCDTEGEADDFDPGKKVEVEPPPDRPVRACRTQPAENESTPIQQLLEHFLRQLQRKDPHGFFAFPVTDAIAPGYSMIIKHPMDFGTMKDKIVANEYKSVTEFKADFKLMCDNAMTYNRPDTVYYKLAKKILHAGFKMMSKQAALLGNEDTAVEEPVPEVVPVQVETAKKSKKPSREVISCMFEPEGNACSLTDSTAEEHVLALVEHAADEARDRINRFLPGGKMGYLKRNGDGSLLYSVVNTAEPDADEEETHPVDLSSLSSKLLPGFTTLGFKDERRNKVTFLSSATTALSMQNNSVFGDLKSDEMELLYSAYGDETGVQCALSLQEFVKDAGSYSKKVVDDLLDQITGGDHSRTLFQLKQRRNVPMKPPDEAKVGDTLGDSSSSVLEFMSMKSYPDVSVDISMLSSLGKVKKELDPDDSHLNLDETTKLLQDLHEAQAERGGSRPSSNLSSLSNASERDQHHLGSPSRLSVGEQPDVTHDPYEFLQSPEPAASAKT
In words: Capillary western of BRD9 in 768-O cells. The following applies: 768-O cells (lacking VHL), 2 h. The format is cell-based. As for the experimental part:
Protein peaks were analyzed using Compass for Simple Western version 5.0.1 (ProteinSimple), area under the curve for both α-tubulin ([…]) and BRD9 (90 kDa) per capillary was extracted and BRD9 area was normalized to α-tubulin area on a per-capillary basis before each sample was normalized to the DMSO for each run of three triplicates.

The target in assay [2] is T2, DCAF1(WDR) with additional 10 µM BRD9-BD(130-250) (Homo sapiens, UniProt Q9H8M2+Q9Y4B6, E1398S).
T2 construct: 2 nM human DCAF1(1073-1399)_E1398S-Avi-His; human BRD9-BD(130-250) in the cooperative assay; His6 (C); GST (PreScission site) (N, cleaved yes); made in house; host or cells: DCAF1: Sf9 with BirA; BRD9: E. coli Rosetta (pGEX6P1)
The assay can be described thus: DCAF1 TR-FRET, cooperative format with 10 µM BRD9-BD(130-250). Format: binding. To be noted: read-out: TR-FRET Q. IC50 [μM], + BRD9. How it is done:
Competition assay conditions consist of 20 µL total volume in white 384-well plates (Greiner), in 30 mM phosphate buffer pH 7.4 containing 140 mM NaCl, 0.01% Tween20, 1 mM TCEP and 1% final DMSO. Tested compounds at 14 different concentrations were pre-incubated at 22 °C for 30 min with a large excess of 10 µM human BTK (G389-S659) or 10 µM human BRD9-BD(130-250) in the cooperative assay or with buffer in standard binary assay. […] Samples were then incubated at 22 °C for 30 min before reading using a Tecan infinite M-1000 or PheraStar FSX (excitation 340 nm, emission 490 and 520 nm). DCAF1 protein was omitted in the negative control. IC50 fitting was carried out using an in-house developed software (Novartis Helios software application, unpublished, a publicly available alternative would be e.g., Graphpad Prism) using the methods described by Fomenko et al.[93] (regression algorithms for nonlinear dose-response curve fitting). Following normalization of activity values for the wells to % inhibition (% inhibition = [(high control-sample)/(high control-low control)] × 100). Data analysis could also be carried out using GraphPad Prism without prior normalization. The reported IC50 values are the average of at least two independent experiments.
(In general: Time-resolved FRET reads energy transfer from a long-lived donor to a nearby acceptor.)

In assay [3] the target is T1, BRD9. The assay can be described thus: BRD9-HiBiT protein abundance luminescence assay in HEK293 cells. To be noted: 2 h.
Description: HEK293/BRD9-HiBiT pools (PROMEGA # CS3023120) and HEK293/BRD7-HiBiT pools (PROMEGA # CS3023124) were purchased from Promega. We performed clonal selection for HEK293/BRD9-HiBiT cell line using single-cell sorting and screening for HiBiT expression using Nano-Glo HiBiT Lytic Detection System (Promega # N3030). The HEK293/BRD9-HiBiT clone and HEK293/BRD7-HiBiT pool to perform standard HiBiT assays.
In another assay the test system is HEK293T cells. In words: Whole proteomics profile, DDa-1 vs (13), HEK293T cells. The format is cell-based, human. To be noted: 5 µM DDa-1 vs 5 µM (13), 6 h. How it is done:
HEK293T and TMD8 cells were cultured according to protocol and 3 million cells were plated per sample and recovered for 24 h. The following day, cells were treated with indicated compounds at corresponding concentrations for 6 h. Cells were then harvested and washed 2× with PBS before removing all liquid and snap freezing in liquid nitrogen before sample preparation for proteomics.
TMT-labeled peptides were generated with the iST-NHS kit (PreOmics) and TMT10plex (duplicates per condition) or TMT18plex (triplicates per condition) reagent (Thermo Fisher Scientific). Equal amounts of labeled peptides were pooled and separated on a high pH fractionation system with a water-acetonitrile gradient containing 10 mM ammonium formate, pH 11[88]. Alternating rows of the resulting 72 fractions were pooled into 24 samples, dried and resuspended in water containing 0.1% formic acid.
The LC-MS analysis was carried out on an EASY-nLC 1200 system coupled to an Orbitrap Fusion Lumos Tribrid mass spectrometer (Thermo Fisher Scientific). […]
LC-MS raw files were analyzed with Proteome Discoverer 2.4 (Thermo Fisher Scientific). […] TMT reporter ions of the MS3 spectra were integrated with a 20 ppm tolerance and the reporter ion intensities were used for quantification. […] Protein relative quantification was performed using an in-house developed R (v.3.6) script. […]

“Also recorded” adds a separate entry of the source.

The IC50 is the point on the concentration scale where inhibition reaches its midpoint.

T2 sequence (Q9Y4B6 1073-1399 E1398S, one chain of several): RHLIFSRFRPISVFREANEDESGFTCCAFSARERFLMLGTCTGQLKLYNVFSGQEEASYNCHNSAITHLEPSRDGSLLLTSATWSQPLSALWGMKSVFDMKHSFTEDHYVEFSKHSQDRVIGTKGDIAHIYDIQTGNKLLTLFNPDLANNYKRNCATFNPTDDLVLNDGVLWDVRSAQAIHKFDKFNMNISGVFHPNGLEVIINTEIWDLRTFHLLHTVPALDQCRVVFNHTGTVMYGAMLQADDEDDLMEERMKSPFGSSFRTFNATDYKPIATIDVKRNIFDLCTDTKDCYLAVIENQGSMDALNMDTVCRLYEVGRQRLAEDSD

`COc1cc(-c2cn(C)c(=O)c3cnccc23)c(OC)cc1CN1CCC(OCCCCCC(=O)N2CCN(c3ccc4c(NCCN)nc(C5(c6ccc(Cl)cc6)CCCCC5)nc4c3)CC2)CC1` [DBr-1]: the DC50 worked out at 1040 nM at BRD9 [1]; 193 nM at BRD9 [3] (read-out: DC50 BRD9-HiBiT, BRD9-HiBiT/CAS9/FF cells); 90 nM at BRD9 [3] (read-out: DC50 BRD9, HEK293/BRD9-HiBiT cells). In addition, in assay [2], the IC50 stood at 0.002 µM.

On to `Cc1nc(Nc2ncc(C(=O)Nc3c(C)cccc3Cl)s2)cc(N2CCC(OC3CCN(CCCCCCCC(=O)N4CCN(c5ccc6c(NCCN)nc(C7(c8ccc(Cl)cc8)CCCCC7)nc6c5)CC4)CC3)CC2)n1` [DDa-1], for which the “kinases with significant protein level reduction (LC/MS proteomics)” value in the assay with HEK293T cells is “CSK and LIMK2; also recorded: TEC and TNK2”.
